Results reported in patent publication US12005044B1, “Treatment of autism spectrum disorders with ergothioneine, selenoneine, or combinations thereof” (Autism Therapeutics Inc., priority 2022, dated 2024).

Key:
[1] = EFSA Panel; cited from earlier work
ASD individuals = assay: CARS-2 scoring of ASD individuals before and after three months of ET dietary supplement; assay type: in vivo, human; parameters: key to CARS-2 Total scores, After treatment / average of total CARS-2 score after treatment: sum of 15 items, 15 (normal) to 60; ≥30 = ASD
Source text: Examples are described below for using ET to treat ASD-affected individuals. Each of the four individuals identified in the examples has various severity of ASD. The examples set forth herein are directed to the use of ET dietary supplement for a period of three months.
The examples below therefore adopted the CARS-2 system to evaluate ET treatment effects in four ASD individuals.
To obtain a CARS-2 score, each individual is rated on a scale of 1 (normal) to 4 (severely abnormal) with respect to each of the 15 criteria (“relationship to others”, “imitation”, “emotional response”, “body use”, “object use”, “adaptation to change”, “visual response”, “listening response”, “taste-smell-touch responses”, “fear and nervousness”, “verbal communication”, “non-verbal communication”, “activity level”, “level and reliability of intellectual responses”, and “general impressions”). A total score is obtained by combining all of 15 separate scores, ranging from 15 to 60. A score of 15 is normal. Scores below 30 are considered very mild or non-autistic; 30-36.5 are considered mild to moderate ASD and scores greater than 36.5 are considered severe ASD. The scoring can be provided by either primary care giver or the parents.
Method of treatment: ET (2 mg/kg bw per day, 54 mg daily) powder is dissolved in drinking water (200 mL). The individual is treated by ET for three months. ET has no color, no taste when dissolved in water.
Method of treatment: ET (2 mg/kg bw per day, 42 mg daily) powder is dissolved in drinking water (200 mL). The individual is treated by ET for three months.
Method of treatment: ET (1 mg/kg bw per day, 74 mg daily) powder is dissolved in drinking water (200 mL). The individual is treated by ET for three months.

[2] = Example 1, child, ET 2 mg/kg bw per day, three months, before treatment 1.5
[3] = Example 1, child, ET 2 mg/kg bw per day, three months, before treatment 2
[4] = Example 1, child, ET 2 mg/kg bw per day, three months, before treatment 2.5
[5] = Example 1, child, ET 2 mg/kg bw per day, three months, before treatment 3
[6] = Example 2, child, ET 2 mg/kg bw per day, three months, before treatment 1
[7] = Example 2, child, ET 2 mg/kg bw per day, three months, before treatment 2
[8] = Example 2, child, ET 2 mg/kg bw per day, three months, before treatment 3
[9] = Example 3, child (ASD, Asperger's Syndrome), ET 2 mg/kg bw per day, three months, before treatment 1
[10] = Example 3, child (ASD, Asperger's Syndrome), ET 2 mg/kg bw per day, three months, before treatment 1.5
[11] = Example 3, child (ASD, Asperger's Syndrome), ET 2 mg/kg bw per day, three months, before treatment 2.5
[12] = Example 4, person, ET 1 mg/kg bw per day, three months, before treatment 1
[13] = Example 4, person, ET 1 mg/kg bw per day, three months, before treatment 2
[14] = Example 4, person, ET 1 mg/kg bw per day, three months, before treatment 3
[15] = Example 4, person, ET 1 mg/kg bw per day, three months, before treatment 4

## C[N+](C)(C)[C@@H](Cc1c[nH]c(=S)[nH]1)C(=O)O [ET, ergothioneine]
[1]
  maximum allowed ET dosage based on the no-observed-adverse-effect level (NOAEL): 800 mg/kg bw per day
ASD individuals; [2]
  CARS-2 Activity level, After treatment: 1.5
  CARS-2 Adaptation to change, After treatment: 1.5
  CARS-2 Body use, After treatment: 1.5
ASD individuals; [3]
  CARS-2 Fear and nervousness, After treatment: 1
  CARS-2 Imitation, After treatment: 2
  CARS-2 Listening response, After treatment: 2
  CARS-2 Non-verbal communication, After treatment: 2
  CARS-2 Object use, After treatment: 2
  CARS-2 Taste-smell-touch responses, After treatment: 2
ASD individuals; [4]
  CARS-2 Emotional response, After treatment: 2
  CARS-2 Relationship to others, After treatment: 2
  CARS-2 Visual response, After treatment: 2.5
ASD individuals; [5]
  CARS-2 General impressions, After treatment: 2.5
  CARS-2 Level and consistency of intellectual response, After treatment: 2
  CARS-2 Verbal communication, After treatment: 2
ASD individuals; Example 1, child, ET 2 mg/kg bw per day, three months, before treatment 33
  CARS-2 Total scores, After treatment: 28.5
ASD individuals; [6]
  CARS-2 Fear and nervousness, After treatment: 1
  CARS-2 Taste-smell-touch responses, After treatment: 1
ASD individuals; [7]
  CARS-2 Adaptation to change, After treatment: 2
  CARS-2 Body use, After treatment: 2
  CARS-2 Emotional response, After treatment: 2
  CARS-2 General impressions, After treatment: 1.5
  CARS-2 Imitation, After treatment: 2
  CARS-2 Level and consistency of intellectual response, After treatment: 2
  CARS-2 Listening response, After treatment: 1
  CARS-2 Object use, After treatment: 2
  CARS-2 Visual response, After treatment: 2
ASD individuals; [8]
  CARS-2 Activity level, After treatment: 3
  CARS-2 Non-verbal communication, After treatment: 2
  CARS-2 Relationship to others, After treatment: 2
  CARS-2 Verbal communication, After treatment: 2
ASD individuals; Example 2, child, ET 2 mg/kg bw per day, three months, before treatment 32
  CARS-2 Total scores, After treatment: 27.5
ASD individuals; [9]
  CARS-2 Adaptation to change, After treatment: 1
  CARS-2 Body use, After treatment: 1
  CARS-2 Emotional response, After treatment: 1
  CARS-2 Level and consistency of intellectual response, After treatment: 1
  CARS-2 Listening response, After treatment: 1
  CARS-2 Non-verbal communication, After treatment: 1
  CARS-2 Object use, After treatment: 1
  CARS-2 Taste-smell-touch responses, After treatment: 1
  CARS-2 Verbal communication, After treatment: 1
ASD individuals; [10]
  CARS-2 Fear and nervousness, After treatment: 1
  CARS-2 General impressions, After treatment: 1.5
  CARS-2 Visual response, After treatment: 1
ASD individuals; Example 3, child (ASD, Asperger's Syndrome), ET 2 mg/kg bw per day, three months, before treatment 2
  CARS-2 Relationship to others, After treatment: 1
ASD individuals; [11]
  CARS-2 Activity level, After treatment: 3
  CARS-2 Imitation, After treatment: 2.5
ASD individuals; Example 3, child (ASD, Asperger's Syndrome), ET 2 mg/kg bw per day, three months, before treatment 20.5
  CARS-2 Total scores, After treatment: 19
ASD individuals; Example 3, child, ET 2 mg/kg bw per day, three months
  diagnosis after ET treatment: no longer ASD
ASD individuals; [12]
  CARS-2 Adaptation to change, After treatment: 1
  CARS-2 Body use, After treatment: 1
  CARS-2 Emotional response, After treatment: 1
ASD individuals; [13]
  CARS-2 Fear and nervousness, After treatment: 1
  CARS-2 Non-verbal communication, After treatment: 2
  CARS-2 Relationship to others, After treatment: 2
  CARS-2 Visual response, After treatment: 2
ASD individuals; [14]
  CARS-2 General impressions, After treatment: 2
  CARS-2 Imitation, After treatment: 3
  CARS-2 Object use, After treatment: 3
  CARS-2 Taste-smell-touch responses, After treatment: 2.5
  CARS-2 Verbal communication, After treatment: 2
ASD individuals; Example 4, person, ET 1 mg/kg bw per day, three months, before treatment 3.5
  CARS-2 Listening response, After treatment: 3
ASD individuals; [15]
  CARS-2 Activity level, After treatment: 4
  CARS-2 Level and consistency of intellectual response, After treatment: 3
ASD individuals; Example 4, person, ET 1 mg/kg bw per day, three months, before treatment 37.5
  CARS-2 Total scores, After treatment: 31.5
ASD individuals; examples 1-4, four individuals, decreased from 30.75, T=4.37, P=0.022 by paired student t-test
  average of total CARS-2 score after treatment: 26.62
